Legend:
[1] = biological target: Sodium-dependent serotonin transporter (Homo sapiens, UniProt P31645); assay: Inhibitory activity against human- serotonin reuptake transmitter using [3H]-citalopram as a radioligand
[2] = Inhibitory activity against 5-hydroxytryptamine receptor 1A using (+/-)-[3H]-8-hydroxydipropylaminotetralin; parameters: species or system Homo sapiens

Sodium-dependent serotonin transporter, sequence (P31645 whole entry): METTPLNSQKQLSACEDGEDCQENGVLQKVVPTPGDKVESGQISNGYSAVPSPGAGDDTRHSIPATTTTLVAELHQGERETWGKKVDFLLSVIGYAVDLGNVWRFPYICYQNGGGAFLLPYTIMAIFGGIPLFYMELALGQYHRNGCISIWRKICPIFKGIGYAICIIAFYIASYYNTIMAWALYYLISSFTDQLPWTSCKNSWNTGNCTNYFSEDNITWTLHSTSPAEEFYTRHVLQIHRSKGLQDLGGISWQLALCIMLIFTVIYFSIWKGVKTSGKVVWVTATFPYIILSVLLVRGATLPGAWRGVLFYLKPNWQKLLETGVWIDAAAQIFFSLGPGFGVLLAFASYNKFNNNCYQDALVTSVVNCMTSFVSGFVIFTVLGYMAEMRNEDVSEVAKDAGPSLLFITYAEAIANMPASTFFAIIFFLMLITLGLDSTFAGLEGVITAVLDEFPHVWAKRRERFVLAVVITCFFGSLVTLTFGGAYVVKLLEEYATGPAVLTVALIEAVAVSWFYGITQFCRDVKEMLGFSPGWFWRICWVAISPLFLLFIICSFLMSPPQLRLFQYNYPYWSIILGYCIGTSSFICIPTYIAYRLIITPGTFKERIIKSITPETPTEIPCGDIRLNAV

SMILES	IC50 [1]	IC50 [2]
COc1ccccc1CC1CCN([C@H]2CC[C@]3(CC2)OC(=O)c2c4c(ccc23)OCO4)CC1	150 nM	6.7 nM
Oc1nc2cc3c(cc2c2c1[C@@H](N1CCC(Cc4cc(F)ccc4F)CC1)CCC2)OCO3 (stereo in doubt; 4o)	14 nM	450 nM
O=C1O[C@]2(CC[C@@H](N3CCC(Cc4ccccc4Cl)CC3)CC2)c2ccc3c(c21)OCCO3	100 nM	19 nM
O=C1O[C@]2(CC[C@@H](N3CCC(Cc4ccccc4C(F)(F)F)CC3)CC2)c2ccc3c(c21)OCO3	180 nM	67 nM
O=C1O[C@]2(CC[C@@H](N3CCN(Cc4ccccc4I)CC3)CC2)c2ccc3c(c21)OCO3	48 nM	9.6 nM
O=C1O[C@]2(CC[C@@H](N3CCC(Cc4ccccc4Br)CC3)CC2)c2ccc3c(c21)OCO3	45 nM	9.6 nM
O=C1O[C@]2(CC[C@@H](N3CCC(Cc4cc(Cl)ccc4Cl)CC3)CC2)c2ccc3c(c21)OCO3	92 nM	2.3 nM
O=C1O[C@]2(CC[C@@H](N3CCC(Cc4cc(F)ccc4F)CC3)CC2)c2ccc3c(c21)OCCO3	110 nM	14 nM
O=C1O[C@]2(CC[C@@H](N3CCC(Cc4cc(F)ccc4Br)CC3)CC2)c2ccc3c(c21)OCCO3	77 nM	11 nM
COc1ccc(F)c(CC2CCN([C@H]3CC[C@]4(CC3)OC(=O)c3c5c(ccc34)OCO5)CC2)c1	400 nM	
COc1ccc(Br)c(CC2CCN([C@H]3CC[C@]4(CC3)OC(=O)c3c5c(ccc34)OCO5)CC2)c1	91 nM	2.4 nM
O=C1O[C@]2(CC[C@@H](N3CCC(Cc4cc(F)ccc4Br)CC3)CC2)c2ccc3c(c21)OCO3	82 nM	14 nM
O=C1O[C@]2(CC[C@@H](N3CCN(Cc4ccccc4I)CC3)CC2)c2ccc3c(c21)OCCO3	54 nM	9.6 nM
Oc1nc2cc3c(cc2c2c1[C@@H](N1CCN(Cc4ccccc4I)CC1)CCC2)OCO3	23 nM	> 1000 nM
O=C1O[C@]2(CC[C@@H](N3CCC(Cc4ccccc4C(F)(F)F)CC3)CC2)c2ccc3c(c21)OCCO3	510 nM	43 nM
Oc1nc2cc3c(cc2c2c1[C@@H](N1CCC(Cc4cc(F)ccc4F)CC1)CCC2)OCO3 (stereo in doubt; 3o)	5 nM	440 nM
O=C1O[C@]2(CC[C@@H](N3CCC(Cc4ccccc4F)CC3)CC2)c2ccc3c(c21)OCCO3	480 nM	12 nM
COc1ccccc1CC1CCN([C@H]2CC[C@]3(CC2)OC(=O)c2c4c(ccc23)OCCO4)CC1	59 nM	4.3 nM
O=C1O[C@]2(CC[C@@H](N3CCC(Cc4ccccc4Cl)CC3)CC2)c2ccc3c(c21)OCO3	140 nM	10 nM
O=C1O[C@]2(CC[C@@H](N3CCC(Cc4ccccc4F)CC3)CC2)c2ccc3c(c21)OCO3	410 nM	14 nM
COc1ccc(F)c(CC2CCN([C@H]3CC[C@]4(CC3)OC(=O)c3c5c(ccc34)OCCO5)CC2)c1	430 nM	11 nM
O=C1O[C@]2(CC[C@@H](N3CCC(Cc4ccccc4Br)CC3)CC2)c2ccc3c(c21)OCCO3	73 nM	9.8 nM
O=C1O[C@]2(CC[C@@H](N3CCC(Cc4cc(F)ccc4F)CC3)CC2)c2ccc3c(c21)OCO3	250 nM	22 nM
